Test results: patent US9850283B2, “Macrocyclic inhibitors of the PD-1/PD-L1 and CD80(B7-1)/PD-L1 protein/protein interactions” (BRISTOL-MYERS SQUIBB COMPANY, priority 2013, dated 2017)
Like-named read-outs stand apart in the source and are kept apart here. Starred links: 1 amine or outer side, 2 acyl side, 3 side chain; linkers in the order of their positions; H or OH if unused. Positions of bridges follow the written chain, without caps; N, C: chain ends. Non-standard residues stand in square brackets, D forms with d. Residues, ends and D or L forms follow the SMILES beside them. ξ: configuration not given here. X7 = COc1ccc(-c2[nH]c3ccccc3c2C[C@H](N[*:1])C(=O)[*:2])cc1; X15 = O=C([C@H](Cc1ccc(Cl)c(F)c1)N[*:1])[*:2]; Tyr(3-Br) = N[C@@H](Cc1ccc(O)c(Br)c1)C(=O)O; X16 = O=C([C@@H]1CC[C@H](O)CN1[*:1])[*:2]; Phe(4-F) = N[C@@H](Cc1ccc(F)cc1)C(=O)O; Bta = N[C@@H](Cc1csc2ccccc12)C(=O)O; Hyp = O=C(O)[C@@H]1C[C@@H](O)CN1; NMeF = CN[C@@H](Cc1ccccc1)C(=O)O; NMeNle = CCCC[C@H](NC)C(=O)O; ξR = N=C(N)NCCCC(N)C(=O)O; NMeA = CN[C@@H](C)C(=O)O; Orn = NCCC[C@H](N)C(=O)O; Dab = NCC[C@H](N)C(=O)O; Abu = CC[C@H](N)C(=O)O; Dap = NC[C@H](N)C(=O)O; ξC = NC(CS)C(=O)O; Sar = CNCC(=O)O

What was measured:
[1] = target: T1, LK35.2-hPD-L1 cells / PE-labeled PD-1-Ig (Homo sapiens, UniProt Q9NZQ7); experiment: LK35.2-hPD-L1 cell binding high-content screening assay; format: cell-based; settings: cluster symbol, read-out: CBA IC50 cluster
T1 construct: expressed in transfected cells; host or cells: LK35.2 mouse B cell line
How it was run: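 Using overnight-cultured LK35.2-hPD-L1 mouse B cells, compound was co-incubated with phycoerythrin-tagged human PD-1-Ig (final 1 nM) at 37 °C for one hour. Unbound label was removed by triple dPBS washing prior to high-content image acquisition and analysis.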

Human PD-L1/PD-1 = target: T2, Human PD-L1/PD-1 (Homo sapiens, UniProt Q9NZQ7); experiment: HTRF PD-1-Ig/PD-L1-His binding assay (human PD-L1); settings: cluster symbol; read-out: HTRF IC50 cluster
T2 construct: made in house; host or cells: HEK293T
How it was run: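 Steps: truncated PD-1-Ig and PD-L1-His fusions are incubated in dPBS containing 0.1% (w/v) BSA and 0.05% (v/v) Tween-20. Detection antibodies are then added (Eu cryptate anti-Ig at 1 nM final, APC anti-His at 20 nM final), and time-resolved FRET is measured.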

[2] = cell binding assay, cell line not given
[3] = cell line of CBA not given (LK35.2-hPD-L1 or 293T-hPD-L1)

T2 sequence (Q9NZQ7 with tags, fused parts or gaps): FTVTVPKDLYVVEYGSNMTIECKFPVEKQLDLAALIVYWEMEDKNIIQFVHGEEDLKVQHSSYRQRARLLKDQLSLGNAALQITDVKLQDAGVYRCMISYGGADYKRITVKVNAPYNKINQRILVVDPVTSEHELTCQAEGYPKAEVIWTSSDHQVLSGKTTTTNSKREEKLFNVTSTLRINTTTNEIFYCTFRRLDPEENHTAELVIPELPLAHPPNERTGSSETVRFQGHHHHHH
T1 sequence (Q9NZQ7 19-290): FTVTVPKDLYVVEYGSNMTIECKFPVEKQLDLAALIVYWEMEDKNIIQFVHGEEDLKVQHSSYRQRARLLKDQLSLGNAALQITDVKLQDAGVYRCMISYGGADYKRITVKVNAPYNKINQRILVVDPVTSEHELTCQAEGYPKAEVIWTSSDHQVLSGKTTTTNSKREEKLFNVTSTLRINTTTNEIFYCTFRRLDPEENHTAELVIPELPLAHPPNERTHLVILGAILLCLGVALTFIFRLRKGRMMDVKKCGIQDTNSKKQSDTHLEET

SMILES	IC50 [1, 2] [nM]	IC50 (Human PD-L1/PD-1) [nM]	IC50 [1, 3] [nM]
CCCC[C@H]1C(=O)N(C)[C@@H](CCCC)C(=O)N[C@@H](CC(C)C)C(=O)N[C@H](C(=O)NCC(N)=O)CSCC(=O)N[C@@H](Cc2ccc(O)cc2)C(=O)N(C)[C@@H](C)C(=O)N[C@@H](CC(N)=O)C(=O)N2CCC[C@H]2C(=O)N[C@@H](CN)C(=O)N[C@@H](CC(C)C)C(=O)N2C[C@@H](O)CC[C@H]2C(=O)N[C@@H](Cc2c[nH]c3ccccc23)C(=O)N[C@@H](CCN)C(=O)N[C@@H](Cc2c[nH]c3ccccc23)C(=O)N1C [Example 6042] ({CH2CO}-Y[NMeA]NP[Dap]L[X16]W[Dab]W[NMeNle][NMeNle]LCG-NH2; thioether N-14)	4.78 to 72.9	0.385 to 6.74	
CCCC[C@H]1C(=O)N(C)[C@@H](CCCC)C(=O)N[C@@H](CCCNC(=N)N)C(=O)N[C@H](C(=O)NCC(N)=O)CSCC(=O)N[C@@H](Cc2ccc(O)cc2)C(=O)N(C)[C@@H](C)C(=O)N[C@@H](CCN)C(=O)N2CCC[C@H]2C(=O)N[C@@H](C)C(=O)N[C@@H](CCC(=O)O)C(=O)N2C[C@H](O)C[C@H]2C(=O)N[C@@H](Cc2c[nH]c3ccccc23)C(=O)N[C@@H](CO)C(=O)N[C@@H](Cc2c[nH]c3ccccc23)C(=O)N1C [Example 1155] ({CH2CO}-Y[NMeA][Dab]PAE[Hyp]WSW[NMeNle][NMeNle]RCG-NH2; thioether N-14)		6.76 to 30.3	4.78 to 72.9
CCCC[C@H]1C(=O)N(C)[C@@H](CCCC)C(=O)N[C@@H](CCCNC(=N)N)C(=O)NC(C(=O)NCC(N)=O)CSCC(=O)N[C@@H](Cc2ccc(O)cc2)C(=O)N(C)[C@@H](C)C(=O)N[C@@H](CC(N)=O)C(=O)N2CCC[C@H]2C(=O)N[C@@H](CO)C(=O)N[C@@H](CC(C)C)C(=O)N2C[C@H](O)C[C@H]2C(=O)N[C@@H](Cc2c[nH]c3ccccc23)C(=O)N[C@@H](CO)C(=O)N[C@@H](Cc2csc3ccccc23)C(=O)N1C (stereo partly shown) [Example 9071] ({CH2CO}-Y[NMeA]NPSL[Hyp]WS[Bta][NMeNle][NMeNle]R[ξC]G-NH2; thioether N-14)	0.158 to 4.71	0.385 to 6.74	
CCCC[C@H]1C(=O)N(C)[C@@H](CCCC)C(=O)N[C@@H](CC)C(=O)N[C@H](C(=O)NCC(N)=O)CSCC(=O)N[C@@H](Cc2ccc(O)cc2)C(=O)N(C)[C@@H](C)C(=O)N[C@@H](CC(N)=O)C(=O)N2CCC[C@H]2C(=O)N[C@@H](Cc2c[nH]cn2)C(=O)N[C@@H](CCC(N)=O)C(=O)N2C[C@H](O)C[C@H]2C(=O)N[C@@H](Cc2c[nH]c3ccccc23)C(=O)N[C@@H](CO)C(=O)N[C@@H](Cc2c[nH]c3ccccc23)C(=O)N1C [Example 5078] ({CH2CO}-Y[NMeA]NPHQ[Hyp]WSW[NMeNle][NMeNle][Abu]CG-NH2; thioether N-14)	0.158 to 4.71	0.385 to 6.74	
CCCC[C@H]1C(=O)N(C)[C@@H](CCCC)C(=O)NC(CCCNC(=N)N)C(=O)N[C@H](C(=O)NCC(N)=O)CSCC(=O)N[C@@H](Cc2ccc(O)cc2)C(=O)N(C)[C@@H](C)C(=O)N[C@@H](CC(N)=O)C(=O)N2CCC[C@H]2C(=O)N[C@@H](CN)C(=O)N[C@@H](CC(C)C)C(=O)N2C[C@H](O)C[C@H]2C(=O)N[C@@H](Cc2c[nH]c3ccccc23)C(=O)N[C@@H](CO)C(=O)N[C@@H](Cc2c(-c3ccc(OC)cc3)[nH]c3ccccc23)C(=O)N1C (stereo partly shown) [Example 7006] ({CH2CO}-Y[NMeA]NP[Dap]L[Hyp]WS[X7][NMeNle][NMeNle][ξR]CG-NH2; thioether N-14)	0.158 to 4.71	0.385 to 6.74	
CCCC[C@H]1C(=O)N(C)[C@@H](CCCC)C(=O)N[C@@H](C)C(=O)N[C@H](C(N)=O)CSCC(=O)N[C@@H](Cc2ccc(O)cc2)C(=O)N(C)[C@@H](C)C(=O)N[C@@H](CCC(=O)O)C(=O)N2CCC[C@H]2C(=O)N[C@@H](Cc2cnc[nH]2)C(=O)N[C@@H](CCN)C(=O)N2C[C@H](O)C[C@H]2C(=O)N[C@@H](Cc2c[nH]c3ccccc23)C(=O)N[C@@H](CO)C(=O)N[C@@H](Cc2c[nH]c3ccccc23)C(=O)N1C [Example 1239] ({CH2CO}-Y[NMeA]EPH[Dab][Hyp]WSW[NMeNle][NMeNle]AC-NH2; thioether N-14)		6.76 to 30.3	4.78 to 72.9
CCCC[C@H]1C(=O)N(C)[C@@H](CCCC)C(=O)N[C@@H](CCCNC(=N)N)C(=O)N[C@H](C(=O)NCC(N)=O)CSCC(=O)N[C@@H](Cc2ccc(F)cc2)C(=O)N(C)[C@@H](C)C(=O)N[C@@H](CC(N)=O)C(=O)N2CCC[C@H]2C(=O)N[C@@H](CN)C(=O)N[C@@H](CC(C)C)C(=O)N2C[C@H](O)C[C@H]2C(=O)N[C@@H](Cc2c[nH]c3ccccc23)C(=O)N[C@@H](CO)C(=O)N[C@@H](Cc2c[nH]c3ccccc23)C(=O)N1C [Example 7048] ({CH2CO}-[Phe(4-F)][NMeA]NP[Dap]L[Hyp]WSW[NMeNle][NMeNle]RCG-NH2; thioether N-14)	> 74.3	0.385 to 6.74	
CCCC[C@H]1C(=O)N(C)[C@@H](CCCC)C(=O)N[C@@H](CCCNC(=N)N)C(=O)N[C@H](C(=O)NCC(N)=O)CSCC(=O)N[C@@H](Cc2ccccc2)C(=O)N(C)[C@@H](C)C(=O)N[C@@H](CC(N)=O)C(=O)N2CCC[C@H]2C(=O)N[C@@H](Cc2cnc[nH]2)C(=O)N[C@@H](CC(C)C)C(=O)N(C)CC(=O)N[C@@H](Cc2c[nH]cn2)C(=O)N[C@@H](CO)C(=O)N[C@@H](Cc2c[nH]c3ccccc23)C(=O)N1C [Example 1073] ({CH2CO}-F[NMeA]NPHL[Sar]HSW[NMeNle][NMeNle]RCG-NH2; thioether N-14)		> 30.5	> 74.3
CCCC[C@H]1C(=O)N(C)CC(=O)N[C@@H](CC(=O)O)C(=O)N[C@@H](C(C)C)C(=O)N(C)[C@@H](Cc2ccccc2)C(=O)N[C@@H](Cc2ccc(O)cc2)C(=O)N(C)CC(=O)N[C@@H](Cc2c[nH]c3ccccc23)C(=O)N[C@@H](Cc2ccc(O)cc2)C(=O)N[C@@H](CC(C)C)C(=O)N[C@H](C(=O)NCC(N)=O)CSCC(=O)N[C@@H](Cc2ccc(Cl)c(F)c2)C(=O)N(C)[C@@H](Cc2ccccc2)C(=O)N1C [Example 3180] ({CH2CO}-[X15][NMeF][NMeNle][Sar]DV[NMeF]Y[Sar]WYLCG-NH2; thioether N-13)		6.76 to 30.3	0.158 to 4.71
CCCC[C@H]1C(=O)N(C)[C@@H](CCCC)C(=O)N[C@@H](CCN)C(=O)N[C@H](C(=O)NCC(N)=O)CSCC(=O)N[C@@H](Cc2ccc(O)c(Br)c2)C(=O)N(C)[C@@H](C)C(=O)N[C@@H](CC(N)=O)C(=O)N2CCC[C@H]2C(=O)N[C@@H](Cc2cnc[nH]2)C(=O)N[C@@H](CC(C)C)C(=O)N2C[C@H](O)C[C@H]2C(=O)N[C@@H](Cc2c[nH]c3ccccc23)C(=O)N[C@@H](CCN)C(=O)N[C@@H](Cc2c[nH]c3ccccc23)C(=O)N1C [Example 6036] ({CH2CO}-[Tyr(3-Br)][NMeA]NPHL[Hyp]W[Dab]W[NMeNle][NMeNle][Dab]CG-NH2; thioether N-14)	0.158 to 4.71	0.385 to 6.74	
CCCC[C@H]1C(=O)N(C)[C@@H](CCCC)C(=O)N[C@@H](CCCNC(=N)N)C(=O)N[C@H](C(=O)NCC(N)=O)CSCC(=O)N[C@@H](Cc2ccc(OC)cc2)C(=O)N(C)[C@@H](C)C(=O)N[C@@H](CC(N)=O)C(=O)N2CCC[C@H]2C(=O)N[C@@H](Cc2cnc[nH]2)C(=O)N[C@@H](CC(C)C)C(=O)N2C[C@H](O)C[C@H]2C(=O)N[C@@H](Cc2c[nH]c3ccccc23)C(=O)N[C@@H](CO)C(=O)N[C@@H](Cc2c[nH]c3ccccc23)C(=O)N1C [Example 7060]	0.158 to 4.71	0.385 to 6.74	
CCCC[C@H]1C(=O)N(C)CC(=O)N[C@@H](CCC(=O)O)C(=O)N[C@@H](C(C)C)C(=O)N(C)[C@@H](Cc2ccccc2)C(=O)N[C@@H](Cc2ccc(O)cc2)C(=O)N(C)CC(=O)N[C@@H](Cc2c[nH]c3ccccc23)C(=O)N[C@@H](Cc2ccc(O)cc2)C(=O)N[C@@H](CC(C)C)C(=O)N[C@H](C(=O)NCC(N)=O)CSCC(=O)N[C@@H](Cc2ccccc2)C(=O)N(C)[C@@H](Cc2ccccc2)C(=O)N1C [Example 3502] (HELM PEPTIDE1{[O=C(C[*:3])[*:2]].F.[meF].[CCCC[C@@H](C(=O)[*:2])N(C)[*:1]].[Sar].E.V.[meF].Y.[Sar].W.Y.L.C.G.[am]}$PEPTIDE1,PEPTIDE1,1:R3-14:R3$$$V2.0)	4.78 to 72.9	6.76 to 30.3	
CCCC[C@H]1C(=O)N(C)[C@@H](CCCC)C(=O)N[C@@H](CCCN)C(=O)N[C@H](C(=O)NCC(N)=O)CSCC(=O)N[C@@H](Cc2ccc(O)cc2)C(=O)N2CCC[C@H]2C(=O)N[C@@H](CC(=O)O)C(=O)N2CCC[C@H]2C(=O)N[C@@H](CN)C(=O)N[C@@H](CCC(N)=O)C(=O)N2C[C@H](O)C[C@H]2C(=O)N[C@@H](Cc2c[nH]c3ccccc23)C(=O)N[C@@H](CCN)C(=O)N[C@@H](Cc2csc3ccccc23)C(=O)N1C [Example 1187] ({CH2CO}-YPDP[Dap]Q[Hyp]W[Dab][Bta][NMeNle][NMeNle][Orn]CG-NH2; thioether N-14)		6.76 to 30.3	4.78 to 72.9
CCCC[C@H]1C(=O)N(C)[C@@H](CCCC)C(=O)N[C@@H](CO)C(=O)N[C@H](C(=O)NCC(N)=O)CSCC(=O)N[C@@H](Cc2ccc(O)cc2)C(=O)N(C)[C@@H](C)C(=O)N[C@@H](CCN)C(=O)N2CCC[C@H]2C(=O)N[C@@H](CO)C(=O)N[C@@H](CCC(=O)O)C(=O)N2C[C@H](O)C[C@H]2C(=O)N[C@@H](Cc2c[nH]c3ccccc23)C(=O)N[C@@H](CO)C(=O)N[C@@H](Cc2c[nH]c3ccccc23)C(=O)N1C [Example 5119] ({CH2CO}-Y[NMeA][Dab]PSE[Hyp]WSW[NMeNle][NMeNle]SCG-NH2; thioether N-14)	4.78 to 72.9	0.385 to 6.74	
